Results: patent US10512700B2, “Radiohalide-labeled targeted diagnostics and therapeutics” (Memorial Sloan Kettering Cancer Center, priority 2014, dated 2019)
Marks after values point to notes of the source that are not given here.

Assays:
[1] = tested on: U251 MG tumor bearing mice; assay: Biodistribution; format: in vivo, mouse; conditions: C-2f, i.v., 120 min post injection, unblocked
Description: Biodistribution studies were conducted on female nude mice (8-10 weeks old and 20-25 g in weight, n=21) bearing U251 MG subcutaneous xenografts. The radiolabeled preparation (20-30 μCi of compound C-2d (^131I) in 200 μL of a solution 90% PBS 10% PEG300) was administrated via the lateral tail vein. The compound was allowed to circulate for 2 h post injection at which time mice were sacrificed and organs were harvested (n=3). The radioactive content in tissue of interest (blood, tumor, muscle, bone, liver, spleen, kidney, heart, lung, pancreas, brain, skin, small intestine, large intestine, stomach, tail, thyroid and feces) was measured on a Wizard 2470 Automatic Gamma Counter, and the tissue-associated activity was calculated as the mean % ID/g using the following formula: [(activity in the target organ/grams of tissue)/injected dose]×100%.
Biodistribution studies were performed in subcutaneous U251 MG xenograft bearing athymic nude mice (n=12). Mice were divided in two groups (blocked and unblocked) and administered with C-2f (approximately 50 μCi, 45 mCi/μmol in […], 10% EtOH in 0.9% sterile saline) via tail vein injection. […] Mice were sacrificed by CO2 asphyxiation at 120 min post injection and major organs were collected, weighed, and counted in a WIZARD^2 automatic γ-counter (PerkinElmer, Boston, Mass.). The radiopharmaceutical uptake was expressed as a percentage of injected dose per gram (% ID/g) using the following formula: [(activity in the target organ/grams of tissue)/injected dose]×100%.

[2] = tested on: orthotopic U251 MG tumor bearing mice; assay: Autoradiography using C-2f; format: in vivo, mouse
Description: One day after PET/CT imaging, the same orthotopic U251 MG tumor bearing mice of Example 4.1.3 were administered with C-2f (80 μCi, 45 mCi/μmol in 300 μL 10% EtOH in 0.9% sterile saline) via tail vein injection. […] The mice were sacrificed after 2 hours and brain and muscle tissues harvested. The collected organs were fixed in Tissue-Tek O.C.T. compound (Sakura Finetek, Torrance, Calif.) and flash-frozen in liquid nitrogen and cut into 20 μm sections using a Vibratome Ultra Pro 5000 Cryostat (Vibratome, St. Louis, Mo.). A storage phosphor autoradiography plate (Fujifilm, BAS-MS2325, Fuji Photo Film, Japan) was exposed to the tissue slices overnight at −20° C. and read the following day (images not shown). Relative count intensity of the sections in each image was quantified using ImageJ 1.47 u processing software (see FIGS. 6A and 6B). Tumor/muscle and brain/muscle ratios were calculated using Prism 6.0c (GraphPad Software, La Jolla, Calif.). The same sections were subsequently subjected to H&E staining (hematoxylin-eosin) for morphological evaluation of tissue pathology and to compare the localization of the radiotracer with the location of tumor tissue (images not shown).

[3] = Stability in whole blood (in vitro); format: in vitro ADME; conditions: whole human blood, 37° C., 15 to 240 minutes
Description: C-2f was then extracted with 750 μL of MeCN, then centrifuged (5 minutes at 5000 rpm) to pellet blood cells and proteins. The supernatant was collected and prepared for HPLC injection by adding 750 μL mQ H2O and filtering. The blood stability was measured by HPLC analysis (Method A).

Blood half-life = format: in vivo, mouse; conditions: athymic nude mice, tail vein injection
Description: The blood half-life was determined by measuring the activity in serial blood samplings. […] Measurements in counts per minute were calculated as the mean % ID/g. The blood half-life was calculated using Prism 6.0c (GraphPad Software, La Jolla, Calif.).
The blood half-life was calculated by measuring the activity of blood samples collected at different time points p.i. […] The collected blood was weighed and counted in a WIZARD^2 automatic γ-counter (PerkinElmer, Boston, Mass.). The blood half-life was calculated using Prism 6.0c (GraphPad Software, La Jolla, Calif.) using a two-phase decay least squares fitting method and expressed as % ID/g.

[4] = tested on: mice bearing orthotopic U251 MG; assay: PET/CT imaging using C-2f; format: in vivo, mouse
Description: Mice bearing orthotopic U251 MG (n=8) were divided in two groups (unblocked and blocked) and administered with C-2f (150 μCi, 45 mCi/μmol in 300 μL 10% EtOH in 0.9% sterile saline) via tail vein injection. […] Approximately 5 min prior to PET acquisition, mice were anesthetized by inhalation of a mixture of isoflurane (Baxter Healthcare, Deerfield, Ill., USA; 2% isoflurane, 2 L/min medical air) and positioned on the scanner bed. Anesthesia was maintained using a 1% isoflurane/O2 mixture. PET data for each mouse was recorded using static scans of 10 minutes and acquired at 30 and 120 minutes post injection. Quantification (see FIG. 8) and % ID/g values were calculated by manually drawing regions of interests in three different frames and determining the average values using ASI Pro VM™ MicroPET Analysis software (Siemens Medical Solutions, Knoxville, Tex.).

V79 cells = conditions: DNA-incorporated; cited from earlier work
[5] = half-life of PARP1i-FL (T. Reiner et al., unpublished); conditions: in vivo
[6] = cited from earlier work

In the case of `O=C(c1ccc([18F])cc1)N1CCN(C(=O)c2cc(Cc3n[nH]c(=O)c4ccccc34)ccc2F)CC1` [C-2f (^18F)], the “% ID/g, Brain” value [1] is reported as 0.04±0.01 % ID/g, the “% ID/g, Muscle” value [1] is reported as 0.37±0.09 % ID/g and the “% ID/g, Tumor” value [1] is reported as 1.82±0.21 % ID/g. For the same compound, the “autoradiography, retention in orthotopic tumor” value ([2]; C-2f only, 2 hours) was 46.66±14.94 AU, the “autoradiography, retention in surrounding brain” value ([2]; C-2f only, 2 hours) was 0.06±0.02 AU and the “autoradiography, muscle tissue” value ([2]; healthy mice) was 1.50±0.31 AU. For the same compound, the “reduction of C-2f by preinjection of olaparib” value ([2]; orthotopic tumor) was 99%, the “autoradiography, retention in orthotopic tumor” value ([2]; preinjection of olaparib) was 0.44±0.41 AU and the “autoradiography, retention in surrounding brain” value ([2]; preinjection of olaparib) was 0.03±0.01 AU. The “autoradiography, muscle tissue” value ([2]; tumor-bearing mice) was 1.36±0.21 AU, the “in vitro blood stability” value [3] was “excellent stability” and the “in vitro blood stability” value ([3]; listed as C-2f) was “no radioactive metabolites were observed”. For the same compound, the alpha blood half-life (Blood half-life) was 1.27 min, the beta blood half-life (Blood half-life) was 31.14 min and the “beta blood half-life, share of phase” value (Blood half-life) was 14.49%. For the same compound, the weighted blood half-life (Blood half-life; 50 μCi) was 5.6 min, the “PET retained activity in tumor” value ([4]; animals receiving only C-2f) was 2.15±0.79 % ID/g and the “PET retained activity in tumor” value ([4]; animals that received both olaparib and C-2f) was 0.28±0.01 % ID/g. For the same compound, the “PET retained activity, C-2f only vs olaparib and C-2f” value ([4]; mouse, in vivo) was “eight-fold higher”.
In the case of `O=c1[nH]c(=O)n([C@H]2C[C@H](O)[C@@H](CO)O2)cc1I` [^123I-IdUrd, 5-iodo-2′-deoxy uridine], the RBE (V79 cells) is given as roughly 7.
In the case of `O=c1[nH]c(=O)n([C@H]2C[C@H](O)[C@@H](CO)O2)cc1I` [^125I-IdUrd, 5-iodo-2′-deoxy uridine], the RBE (V79 cells) is given as “about 8”.
In the case of `Cc1cc(C)n2c1C=C1C=CC(CCC(=O)N3CCN(C(=O)c4cc(Cc5n[nH]c(=O)c6ccccc56)ccc4F)CC3)=[N+]1[B-]2(F)F` [PARP1i-FL], the tα1/2 [5] is reported as 1.2 min, the “tα1/2, share of phase” value [5] is reported as 73.2% and the tβ1/2 [5] is reported as 88.2 min. The “tβ1/2, share of phase” value [5] was 26.8%, the “weighted t1/2” value [5] was 24.5 min^c and the plasma free fraction [6] was 0.7%^b.
